Measurements from paper PMC6934663, “Genomic and functional gene studies suggest a key role of beta-carotene oxygenase 1 like (bco1l) gene in salmon flesh color” (Scientific Reports, 2019).

Target: T1, Bco1l (Salmo salar, UniProt A0A1S2X8G0)
T1 construct: the ssa11 copy is truncated), expressed in carotenoid-producing E. coli XL1-Blue, 528 aa
T1 sequence (A0A1S2X8G0 1-528): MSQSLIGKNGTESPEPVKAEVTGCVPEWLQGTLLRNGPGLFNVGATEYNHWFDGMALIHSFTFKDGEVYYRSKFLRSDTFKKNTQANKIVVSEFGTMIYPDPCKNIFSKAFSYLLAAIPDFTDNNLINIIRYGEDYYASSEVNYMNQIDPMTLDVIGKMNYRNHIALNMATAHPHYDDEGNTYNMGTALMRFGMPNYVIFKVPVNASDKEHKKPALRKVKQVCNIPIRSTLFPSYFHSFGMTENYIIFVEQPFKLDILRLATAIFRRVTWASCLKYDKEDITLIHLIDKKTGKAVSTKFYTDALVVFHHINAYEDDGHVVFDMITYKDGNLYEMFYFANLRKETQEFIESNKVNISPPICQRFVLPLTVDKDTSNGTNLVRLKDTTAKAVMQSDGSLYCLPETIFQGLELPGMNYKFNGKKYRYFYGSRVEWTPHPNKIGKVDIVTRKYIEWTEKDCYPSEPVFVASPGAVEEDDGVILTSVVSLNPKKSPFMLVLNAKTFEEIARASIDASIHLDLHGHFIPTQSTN
Experiment: HPLC of cleavage products in beta-carotene-producing E. coli
Type: cell-based
Conditions: E. coli co-expression, IPTG 0.2 mM, 16 h at 25 °C in darkness; 15,15' oxidative cleavage

With `CC1=C(/C=C/C(C)=C/C=C/C(C)=C/C=C/C=C(C)/C=C/C=C(C)/C=C/C2=C(C)CCCC2(C)C)C(C)(C)CCC1` [beta-carotene] the “HPLC of cleavage products in beta-carotene-producing E. coli” value was “The results showed that Bco1l cleaved beta-carotene (Fig. 6A)”.
